Here are results for one compound from patent publication US7482124B2, “Method of identifying a PPARgamma-agonist compound having a decreased likelihood of inducing dose-dependent peripheral edema” (Bristol-Myers Squibb Company, priority 2005, dated 2009).

SMILES strings stand for the structures. “And” between values parts separate entries of the source, which are not always exact repeats. Equal values may be shown once.

For series [1], the system named is human renin gene expression in CALU-6 cells. Nature of the series: Renin gene expression in CALU-6 cells, quantitative RT-PCR dose-titration. It counts as cell-based. The text has this: (§1) Cell line maintenance: CALU-6 cells and growth media were obtained from ATCC® (Manassas, Va.). CALU-6 cells were recovered and expanded in complete growth media (Minimal Essential Media+Earle's Balanced Salt Solution, 1% penicillin/streptomycin, 10% Fetal Bovine Serum). Antibiotics and FBS were purchased from Invitrogen.
(§2) Compounds: Compound A, Compound B, Compound D, Compound C, Compound G, Compound F, Compound H, Compound I, Compound J and Compound K were synthesized at Bristol-Myers Squibb Co. Compound E was purified by reverse phase high-performance liquid chromatography from commercial pharmaceutical preparations. Compounds A, B, F, and G are dual PPAR alpha and gamma agonists; while compounds C, D, and E are single PPAR gamma agonists. Fenofibrate and DMSO were purchased from Sigma. […]
(§3) Quantitative RT-PCR experiments: CALU-6 cells were seeded on day 0 in at 5×10^5 cells/well, in 6-well tissue culture plates. […] RNA quantities were determined spectrophotometrically using a SPECTRAMAX® 384 spectrophotometer (Molecular Devices). […] All data were further analyzed using Microsoft Excel. Fold-change in gene expression upon treatment with compound was expressed as […] ΔCt, where ΔΔCt=(Ctrenin, endothelin-1−CtGAPDH)DMSO−(Ctrenin, endothelin-1−CtGAPDH)treatment. […] Dose-titration experiments were further analyzed using GraphPad Prism Software (GraphPad Inc) to derive EC50 values. […]

Series [2] relates to patients. Nature of the series: Dose-dependent peripheral edema in Phase II clinical trials CV168-006 and CV168-008. It counts as in vivo, human. The protocol: Genomic DNA samples from patients enrolled in two Bristol-Myers Squibb Company Phase II clinical trials CV168-006 and CV168-008 trials were genotyped for 50 SNPs identified in the human renin gene (see Example 1) and evaluated for association with edema.
498 subjects enrolled in the CV168-006 trial and 232 subjects from the CV168-008 trial were analyzed in this study. All analyses were based on data collected up to 24 weeks, which was the duration of the short-term phase of the trials. DNA was extracted from frozen blood by a third-party (Genaissance Inc, North Carolina) using a salting-out method (Gentra Systems). All subjects gave written informed consent.
The association between peripheral edema and the renin single nucleotide polymorphisms of the present invention were investigated by applying statistical analysis to the results of the genotyping assays described elsewhere herein. The central hypothesis of this analysis is that a predisposition to develop dose-dependent peripheral edema may be conferred by specific genomic factors. The analysis attempted to identify one or more of these factors in genomic DNA samples from index cases and matched control subjects who were exposed to Compound A in two Bristol-Myers Squibb (BMS) clinical studies (see Example 2).
Sample. Investigators in the BMS clinical trials diagnosed dose-dependent peripheral edema in some subjects.
Table A provides a distribution of the frequency of dose-dependent peripheral edema by treatment arm.

Series [3] concerns diabetics. The conditions noted are these: literature (Leff and Reed 2002; Nesto et al. 2003); cited from earlier work.
Series [4] deals with human endothelin-1 gene expression in CALU-6 cells. Kind of series: Human endothelin-1 expression profile in CALU-6 cells by quantitative RT-PCR (Example 15). Type of series: cell-based. As to the method:
On account of the involvement of ET-1 in vascular tone maintenance, along with its involvement in numerous cardiovascular disease processes, the possibility that PPAR agonists may contribute to an agonist-induced edema mechanism of action through the modulation of endoethelin-1, was investigated using quantitative RT-PCR. Briefly, gene expression studies were performed using a cell line that was previously shown to express endogenous endothelin mRNA, CALU-6 (Lang et al., 1995).
The human lung carcinoma cell line, CALU-6, was obtained from ATCC®. […]
(§4) Compounds A, B, C, D, and F were synthesized at Bristol-Myers Squibb Co. Compound E was purified by reverse phase high-performance liquid chromatography from commercial pharmaceutical preparations. […] The final concentration of each PPAR-agonist used in the induction studies was 5×EC50 as determined from pre-adipocyte differentiation studies (data not shown). […]
(§5) CALU-6 cells were seeded on day 0 in replicates of six (or twelve for DMSO control), at 5×10^5 cells/well, in 6-well tissue culture plates. […] RNA quantities were determined spectrophotometrically using a SPECTRAMAX® 384 spectrophotometer (Molecular Devices). RNA quality was assessed using an Agilent 2100 Bioanalyzer (Agilent Technologies) following the manufacturer's recommendations. […]

Series [5] concerns human renin gene expression in CALU-6 cells. Kind of series: Human renin expression in CALU-6 cells by microarray analysis (Example 8). The conditions noted are these: CALU-6, 5×EC50, 24 hr, FIGS. 12A-B. It counts as cell-based. As to the method: As an independent measurement of the renin induction by PPAR agonists observed using RT-PCR (see Example 7 and FIG. 11), four of the experimental treatment groups described under the “Induction Experiments” section in Example 7, were analyzed on AFFYMETRIX® genechips, including; DMSO, Compound A, Compound B, and Compound E. Triplicate samples from each treatment group were analyzed.
All cDNA and cRNA synthesis as well as all hybridizations and subsequent washing steps were performed following the […]® Expression Analysis Technical Manual (Affymetrix). AFFYMETRIX® HG-U133A gene chips were used for all expression profiling studies in this invention.
Micro Array Suite (MAS) 5.0 (Affymetrix) software was used to pre-process all micro-array data. Each treated sample (including DMSO control) was first scaled to an average intensity value of 1500. The data was further analyzed in Excel '97 (Microsoft).
All treated samples were compiled into one Excel spreadsheet such that each compound treated sample (and DMSO control) was aligned for all 22283 genes on the HG-U133A […]®. Gene fold-change values were calculated by dividing the mean signal intensity of each treatment group by the mean signal intensity of the DMSO control. Pair-wise 2-tailed Student's t-tests were performed for each treatment group.

For series [6] the test system is unchanged. Kind of series: Human renin expression profile in CALU-6 cells by quantitative RT-PCR (Example 7). Type of series: cell-based. The settings on record: qRT-PCR, CALU-6, 5×EC50, 24 hr, FIG. 11. The protocol: Since RAAS plays a fundamental role in fluid volume homeostasis, the possibility that PPAR agonists may contribute to agonist-induced edema mechanism of action through the modulation of other components of this system, specifically renin, was investigated using quantitative RT-PCR. Briefly, gene expression studies were performed using a cell line that was previously shown to express endogenous renin mRNA, CALU-6 (Lang et al., 1995).
The human lung carcinoma cell line, CALU-6, was chosen on account of it being previously shown to endogenously express renin. […]
as §4, §5
For orientation: In qPCR the cycle at which signal appears reflects the starting amount.

For series [7], the system named is human endothelin-1 gene expression in CALU-6 cells. Kind of series: Endothelin-1 gene expression in CALU-6 cells, quantitative RT-PCR dose-titration. It counts as cell-based.
Source text: as §1, §2, §3

Setting [8] is: Dose E (133 subjects), 40 fold Dose A.

Regarding `COc1ccc(OC(=O)N(CC(=O)O)Cc2ccc(OCCc3nc(-c4ccccc4)oc3C)cc2)cc1` [COM. A, N-[(4-methoxyphenoxy)carbonyl]-N-[[4-[2-(5-methyl-2-phenyl-4-oxazolyl)ethoxy]phenyl]methyl] glycine], the “increase of renin mRNA, factor” value in series [1] (CALU-6, qRT-PCR, FIG. 21A) was “fifteen to twenty”. The EC50 in series [1] (Homo sapiens, mean ± SEM, renin up-regulation, dose-titration experiments (n = 3 to n = 18), CALU-6, 24 hr) came out at 96.3 ± 32 nM. Also, the “Number of edema cases” value in series [2] (Dose A (79 subjects)) is 16; in series [2] (Dose B (90 subjects)) it was 14; in series [2] (Dose C (125 subjects)), 13; in series [2] (Dose D (129 subjects)), 27; in series [2] (setting [8]), 54. For the same compound, the “edema cases (%)” value in series [2] (Dose A (79 subjects)) is 20%; in series [2] (Dose B (90 subjects)), 16%; in series [2] (Dose C (125 subjects)) it was 10%; in series [2] (Dose D (129 subjects)), 21%; in series [2] (setting [8]) it was 40% and 41%. The “frequency of edema with dose” value in series [2] (dose increased from 0.5 mg to 20 mg) is “frequency of edema increased”. In series [3], the “edema in clinical use” value is “acceptable incidence and severity of edema”. The “difference in level of endothelin-1 repression compared to other PPAR agonists studied” value in series [4] (CALU-6, 5×EC50) is on record as “no significant difference”. For the same compound, the “human endothelin-1 expression, fold-change over DMSO treated cells” value in series [4] (qRT-PCR, CALU-6, 5×EC50, 24 hr, FIGS. 16 and 17) is reported as “significantly decrease”. Further, the “human renin expression, fold-change over DMSO treated cells” value in series [5] is given as “significantly increased”; in series [6], “significantly elevate”. For the same compound, the “down-regulation of endothelin-1 gene expression, factor” value in series [7] (CALU-6, qRT-PCR, FIG. 21A) is “four to five”. Besides, the half-maximal inhibitory concentration (IC50) in series [7] (Homo sapiens, mean ± SEM, endothelin-1 down-regulation, dose-titration experiments (n = 3 to n = 18), CALU-6, 24 hr) was determined as 18 ± 6.07 nM.

What is called EC50 is the concentration that produces a half-maximal response. High values mean a less potent agent, low ones a more potent agent. The IC50 is the concentration that inhibits the measured activity by half.
